Measured values published in patent publication US20060173066A1, “Remedy for diabetes” (Kyowa Hakko Kogyo Co., Ltd., priority 2003, published 2006).

Experiments:
[1] = system: KK-Ay/Ta Jcl mice of a type 2 diabetic model; assay: Example 1: non-fasting blood-sugar level in mice fed CE-2 feed with 1% by weight of test substance; format: in vivo
Excerpt: (§1) KK-Ay/Ta Jcl mice (Clea Japan, Inc.; male; six weeks age) (15 mice) of a type 2 diabetic model were divided into three groups each comprising five mice and named group 1 to group 3.
(§2) The mice of the groups 1 to 3 were made free to take feed and water. A commercially available feed CE-2 (manufactured by Clea Japan, Inc.) was ingested to the mice of group 1. CE-2 to which 1% by weight of trans-4-hydroxy-L-proline (manufactured by Kyowa Hakko Kogyo; hereinafter, abbreviated as hydroxyproline) was added was ingested to the mice of group 2. CE-2 to which 1% by weight of trans-N-acetyl-4-hydroxy-L-proline (manufactured by Kyowa Hakko Kogyo; hereinafter, abbreviated as N-acetylhydroxyproline) was added was ingested to the mice of group 3.
(§3) On the initial day of the test and on the 17th day thereafter, blood was collected from tail vein and blood-sugar level upon non-fasting was measured by a Medisafe Reader GR-101 (manufactured by Thermo Co.). The mice were fasted for 18 hours during the 17th day to the 18th day after the start of the test and whole blood was collected from descending vena cava to prepare serum. The serum-insulin level was measured by a Levi Insulin Kit Mouse-T (manufactured by Shibayagi). The value was shown by mean value±standard error (n=5) and statistic ratio of risk (p value) was determined by a t-test. With regard to the ingested amounts during the test periods, there was no significant difference among the groups 1 to 3.

[2] = system: KK-Ay/Ta Jcl mice of a type 2 diabetic model; assay: Example 1: serum-insulin level after 18 hours fasting in mice fed CE-2 feed with 1% by weight of test substance; format: in vivo
Excerpt: as §1, §2, §3

[3] = system: KK-Ay/Ta Jcl mice of a type 2 diabetic model; assay: Example 3: blood-sugar level after oral glucose load in fasted mice; format: in vivo; details: 1 g/kg B.W. oral
Experimental: KK-Ay/Ta Jcl mice (Clea Japan, Inc.; male; six weeks age) (16 mice) of a type 2 diabetic model were divided into 2 groups each comprising 8 mice and named group 1 and group 2.
After fasting for 18 hours, a physiological saline solution was orally administered to the mice of the group 1 while, to the mice of the group 2, 1 g/kg body weight (hereinafter, referred to as “B.W.”) of a 20% (w/v) aqueous solution of the N-acetylhydroxyproline (dissolved in a physiological saline solution) was orally administered. After 1 hour, 2 g/kg B.W. of a 40% (w/v) aqueous solution of glucose was orally administered to the mice of the groups 1 and 2 to load with sugar. Blood was collected from tail vein 60 minutes before (−60 minutes) administration of the aqueous glucose solution, upon the administration (0 minute) and 30 and 120 minutes after the administration and blood-sugar levels were measured by a Medisafe Reader GR-101. The value was shown by mean value±standard error (n=8) and statistic ratio of risk (p value) was determined by a t-test.

[4] = system: KK-Ay/Ta Jcl mice of a type 2 diabetic model; assay: Example 2: serum-insulin level after 18 hours fasting in mice fed CE-2 feed with 1% by weight of test substance; format: in vivo; details: for Serum-Insulin Level: 11th day after 18 hours fasting, mean ± standard error, n=5
Excerpt: (§4) KK-Ay/Ta Jcl mice (Clea Japan, Inc.; male;,six weeks age) (15 mice) of a type 2 diabetic model were divided into three groups each comprising five mice and named group 1 to group 3.
(§5) The mice of the groups 1 to 3 were made free to take feed and water. A commercially available feed CE-2 (manufactured by Clea Japan, Inc.) was ingested to the mice of group 1. CE-2 to which 1% by weight of trans-4-hydroxy-L-proline ethyl ester (manufactured by Sanyo Chemical Laboratory Co., Ltd.; hereinafter, abbreviated as hydroxyproline ethyl ester) was added was ingested to the mice of group 2. CE-2 to which 1% by weight of trans-N,O-diacetyl-4-hydroxy-L-proline oleyl ester (manufactured by Nissei Kagaku; hereinafter, abbreviated as diacetylhydroxyproline oleyl ester) was added was ingested to the mice of group 3.
as §3, with “10th” for “17th”, “GR-101.” for “GR-101 (manufactured by Thermo Co.).”, “11th” for “18th”, “Mouse-T.” for “Mouse-T (manufactured by Shibayagi).”

[5] = system: KK-Ay/Ta Jcl mice of a type 2 diabetic model; assay: Example 2: non-fasting blood-sugar level in mice fed CE-2 feed with 1% by weight of test substance; format: in vivo; details: for antidiabetic action (conclusion from Table 3): 10 days; for Blood-Sugar Level, 10th Day of the Test / Blood-Sugar Level, Initial Day of the Test: non-fasting, tail vein blood, mean ± standard error, n=5; for Blood-Sugar Level, Initial Day of the Test: initial day (baseline)
Excerpt: as §4, §5
as §3, with “10th” for “17th”, “GR-101.” for “GR-101 (manufactured by Thermo Co.).”, “11th” for “18th”, “Mouse-T.” for “Mouse-T (manufactured by Shibayagi).”

C2C12 cells = assay: Example 6: consumption of glucose of differentiated C2C12 cells (glucose concentration in supernatant); format: cell-based, mouse; details: for action on insulin effect on muscle (conclusion from Table 8): 100 μg/ml with insulin 0.1 μg/ml; for insulin concentration necessary to achieve the same result if insulin is used solely: relative to 0.1 μg/ml insulin used with 100 μg/ml test substance (1 μg/ml); for Glucose (concentration in supernatant after incubation): 3 days incubation, mean ± standard deviation, n=3
Experimental: Each 1.2×10^5 C2C12 cells (cell strain derived from striated muscles of mouse; Dainippon Pharmaceutical Co., Ltd.) was inoculated on a 12-well plate and incubated at 37° C. for 3 days in a CO2 incubator (5% CO2/95% air) with a DMEM medium (manufactured by Invitrogen) to which 10% fetal bovine serum (manufactured by Invitrogen) was added. When the cells became confluent, the medium was exchanged to a DMEM medium to which 2% horse serum (manufactured by Invitrogen) was added and incubation was further conducted for 4 days to differentiate to myotubes. The medium was exchanged once again with a DMEM medium to which 2% horse serum was added and further incubated for 3 days after addition of bovine insulin (manufactured by Invitrogen) so as to make its final concentration 1 μg/ml or 0.1 μg/ml, a mixture of bovine insulin and trans-4-hydroxy-L-proline methyl ester (manufactured by Kokusan Chemical Co., Ltd.; hereinafter, referred to as hydroxyproline methyl ester) so as to make their final concentrations 0.1 μg/ml and 100 μg/ml, respectively or a mixture of bovine insulin and hydroxyproline ethyl ester so as to make their final concentrations 0.1 μg/ml and 100 μg/ml, respectively. Each of the supernatant liquids after the incubation was recovered and glucose concentration was measured by a Glucose CII Test Wako (manufactured by Wako Pure Chemical Industries, Ltd.) whereby consumption of glucose of the differentiated C2C12 cells was investigated. The values are shown by mean value±standard deviation (n=3, mg/l) and statistic ratio of risk (p value) was determined by a t-test.

[6] = co-presence of 0.1 μg/ml of insulin and 100 μg/ml of test substance, vs insulin 0.1 μg/ml
[7] = test substance 100 μg/ml together with insulin 0.1 μg/ml

In the case of `CC(=O)N1C[C@H](O)C[C@H]1C(=O)O` [N-acetylhydroxyproline, trans-N-acetyl-4-hydroxy-L-proline], the “antidiabetic action (conclusion from Table 1)” value ([1]; 17 days) is reported as “antidiabetic action”, the “Blood-Sugar Level, 17th Day of the Test” value ([1]; non-fasting, tail vein blood, 17th day, mean ± standard error, n=5) is reported as 226.2 ± 12.9 mg/dL and the “Blood-Sugar Level, Initial Day of the Test” value ([1]; non-fasting, tail vein blood, initial day (baseline), mean ± standard error, n=5) is reported as 241.0 ± 15.5 mg/dL. The “antidiabetic action by improving insulin resistance (conclusion from Tables 1 and 2)” value [2] was “show an antidiabetic action by improving the insulin resistance”, the “Serum-Insulin Level” value ([2]; 18th day after 18 hours fasting, mean ± standard error, n=5) was 0.69 ± 0.06 ng/mL and the “antidiabetic action (conclusion from Table 5)” value ([3]; glucose load) was “antidiabetic action”. The “Blood-Sugar Level, 30 min” value ([3]; 30 minutes after glucose 2 g/kg, mean ± standard error, n=8) was 407.1 ± 17.1 mg/dL, the “Blood-Sugar Level, −60 min” value ([3]; 60 minutes before glucose 2 g/kg (baseline, at dosing), mean ± standard error, n=8) was 159.4 ± 5.6 mg/dL and the “Blood-Sugar Level, 120 min” value ([3]; 120 minutes after glucose 2 g/kg, mean ± standard error, n=8) was 210.4 ± 14.4 mg/dL. For the same compound, the “Blood-Sugar Level, 0 min” value ([3]; upon glucose administration 2 g/kg, mean ± standard error, n=8) was 179.9 ± 11.6 mg/dL.
`CCCCCCCC/C=C\CCCCCCCCOC(=O)[C@@H]1C[C@@H](OC(C)=O)CN1C(C)=O` (relative stereo) [diacetylhydroxyproline oleyl ester, trans-N,O-diacetyl-4-hydroxy-L-proline oleyl ester] was tested, and the “antidiabetic action by improving insulin resistance (conclusion from Tables 3 and 4)” value [4] was “show an antidiabetic action by improving the insulin resistance”, the “Serum-Insulin Level” value [4] was 0.64 ± 0.12 ng/mL and the “antidiabetic action (conclusion from Table 3)” value [5] was “antidiabetic action”. The “Blood-Sugar Level, 10th Day of the Test” value [5] was 215.2 ± 20.3 mg/dL and the “Blood-Sugar Level, Initial Day of the Test” value [5] was 241.0 ± 11.0 mg/dL.
`COC(=O)[C@@H]1C[C@@H](O)CN1` [hydroxyproline methyl ester, trans-4-hydroxy-L-proline methyl ester] was tested, and the “action on insulin effect on muscle (conclusion from Table 8)” value (C2C12 cells) was “potentiate the action of insulin to the muscle”, the “consumption of glucose of C2C12 cells” value (C2C12 cells; [6]) was “significantly increased” and the “insulin concentration necessary to achieve the same result if insulin is used solely” value (C2C12 cells) was “ten-fold”. For the same compound, the Glucose (concentration in supernatant after incubation) (C2C12 cells; [7]) was 926 ± 47 mg/L.
“Insulin: bovine insulin (manufactured by Invitrogen) [reference compound]” was tested, and the “consumption of glucose of C2C12 cells” value (C2C12 cells; addition of 0.1 μg/ml of insulin, vs nothing added) was “significantly promoted”, the “Glucose (concentration in supernatant after incubation)” value (C2C12 cells; insulin 0.1 μg/ml alone) was 1260 ± 15 *^1 mg/ and the Glucose (concentration in supernatant after incubation) (C2C12 cells; insulin 1 μg/ml alone) was 942 ± 34 mg/L.
For `CCOC(=O)[C@@H]1C[C@@H](O)CN1` [hydroxyproline ethyl ester, trans-4-hydroxy-L-proline ethyl ester], the “antidiabetic action by improving insulin resistance (conclusion from Tables 3 and 4)” value [4] was “show an antidiabetic action by improving the insulin resistance”, the “Serum-Insulin Level” value [4] was 0.52 ± 0.10 ng/mL and the “action on insulin effect on muscle (conclusion from Table 8)” value (C2C12 cells) was “potentiate the action of insulin to the muscle”. The “consumption of glucose of C2C12 cells” value (C2C12 cells; [6]) was “significantly increased”, the “insulin concentration necessary to achieve the same result if insulin is used solely” value (C2C12 cells) was “ten-fold” and the Glucose (concentration in supernatant after incubation) (C2C12 cells; [7]) was 984 ± 29 mg/L. The “antidiabetic action (conclusion from Table 3)” value [5] was “antidiabetic action”, the “Blood-Sugar Level, 10th Day of the Test” value [5] was 217.2 ± 11.3 mg/dL and the “Blood-Sugar Level, Initial Day of the Test” value [5] was 253.0 ± 9.5 mg/dL.
